Laboratory results published in article PMC11589570, “Critical assessment of LC3/GABARAP ligands used for degrader development and ligandability of LC3/GABARAP binding pockets” (Nature Communications, 2024).
Several values for one entry are separate records, joined by “and”; a condition that tells them apart may be missing. Identical values can stand only once.

Tests used:
Experiment in all cases: FP assay with Cy5-labelled p62 LIR tracer (protein titration and tracer displacement)
Conditions in all cases: replicates, listed as TH152
GABARAP = GABARAP (Homo sapiens, UniProt O95166); format: binding
GABARAPL1 = GABARAPL1 (Homo sapiens, UniProt Q9H0R8); format: binding
LC3C = LC3C (Homo sapiens, UniProt Q9BXW4); format: binding
GABARAPL2 = GABARAPL2 (Homo sapiens, UniProt P60520)
Sequence of GABARAPL2 (P60520 whole entry): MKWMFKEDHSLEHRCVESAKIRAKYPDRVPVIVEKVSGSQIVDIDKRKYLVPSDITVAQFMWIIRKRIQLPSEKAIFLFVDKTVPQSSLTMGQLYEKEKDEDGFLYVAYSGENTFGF

Sequence of GABARAP (O95166 1-116): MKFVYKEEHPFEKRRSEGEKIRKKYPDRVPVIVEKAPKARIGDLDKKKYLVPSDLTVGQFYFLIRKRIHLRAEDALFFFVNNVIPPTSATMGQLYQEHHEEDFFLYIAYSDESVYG
Sequence of LC3C (Q9BXW4 1-126): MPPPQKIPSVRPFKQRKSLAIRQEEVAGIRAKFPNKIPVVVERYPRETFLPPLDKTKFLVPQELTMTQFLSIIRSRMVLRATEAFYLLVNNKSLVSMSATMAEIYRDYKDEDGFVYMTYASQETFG
Sequence of GABARAPL1 (Q9H0R8 whole entry): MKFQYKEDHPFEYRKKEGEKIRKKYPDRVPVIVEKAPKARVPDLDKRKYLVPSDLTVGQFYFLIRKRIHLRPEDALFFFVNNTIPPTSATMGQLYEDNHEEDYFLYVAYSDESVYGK

FP assay result (normalised FP signal) (GABARAP; log10 concentration [M] -3.5): 6.476 and 7.14 and 8.634 and 10.7929 | FP assay result (normalised FP signal) (GABARAP; log10 concentration [M] -7.5): 97.3018 (2×) and 101.453 and 101.785 | FP assay result (normalised FP signal) (GABARAPL1; log10 concentration [M] -6): 98.6263 and 98.7672 (2×) and 99.1899 | FP assay result (normalised FP signal) (GABARAPL1; log10 concentration [M] -7): 99.049 and 98.3445 and 97.64 and 97.4991 | FP assay result (normalised FP signal) (GABARAPL1; log10 concentration [M] -8): 97.0764 and 96.0902 (2×) and 101.162
SMILES: CCCCCCC(Sc1nc(Cl)cc(Nc2nc(-c3ccc(C(=O)O)cc3)cs2)n1)C(=O)O (centres unmarked) [compound 21]
FP assay result (normalised FP signal) (GABARAP; log10 concentration [M] -4): 22.9141 and 19.9253 and 28.8917 and 24.7406 | FP assay result (normalised FP signal) (GABARAP; log10 concentration [M] -4.5): 50.1453 and 47.6546 and 52.4699 and 48.8169 | FP assay result (normalised FP signal) (GABARAP; log10 concentration [M] -5): 88.9996 and 85.5127 and 92.3205 and 91.9884 | FP assay result (normalised FP signal) (GABARAP; log10 concentration [M] -5.5): 94.6451 and 91.9884 and 100.623 and 97.7999 | FP assay result (normalised FP signal) (GABARAP; log10 concentration [M] -6): 98.298 and 99.6264 and 101.287 and 99.7924 | FP assay result (normalised FP signal) (GABARAP; log10 concentration [M] -6.5): 94.479 and 92.8186 and 96.6376 and 97.7999 | FP assay result (normalised FP signal) (GABARAP; log10 concentration [M] -7): 96.3055 and 97.7999 and 100.955 and 96.9697 | FP assay result (normalised FP signal) (GABARAP; log10 concentration [M] -8): 99.9585 and 97.966 and 101.619 and 100.457 | FP assay result (normalised FP signal) (GABARAP; log10 concentration [M] -8.5): 96.1395 and 97.7999 and 97.966 and 99.2943 | FP assay result (normalised FP signal) (GABARAPL1; log10 concentration [M] -3.5): 12.2578 and 12.5396 and 10.1444 and 7.186 | FP assay result (normalised FP signal) (GABARAPL1; log10 concentration [M] -4): 30.4333 and 31.4195 and 29.5879 and 26.0655 | FP assay result (normalised FP signal) (GABARAPL1; log10 concentration [M] -4.5): 65.2342 and 56.9215 and 57.9077 and 55.9352 | FP assay result (normalised FP signal) (GABARAPL1; log10 concentration [M] -5): 92.9905 and 91.2998 and 95.2448 and 93.4132 | FP assay result (normalised FP signal) (GABARAPL1; log10 concentration [M] -5.5): 96.2311 and 98.3445 and 98.9081 and 98.7672 | FP assay result (normalised FP signal) (GABARAPL1; log10 concentration [M] -6.5): 96.2311 and 93.5541 and 95.6675 and 93.2723 | FP assay result (normalised FP signal) (GABARAPL1; log10 concentration [M] -7.5): 101.021 and 101.867 and 99.049 and 98.0627 | FP assay result (normalised FP signal) (GABARAPL1; log10 concentration [M] -8.5): 95.6675 and 98.9081 and 96.9355 and 97.3582 | FP assay result (normalised FP signal) (LC3C; log10 concentration [M] -3.5): 19.6537 and 17.9691 and 15.5358 and 11.7922 | FP assay result (normalised FP signal) (LC3C; log10 concentration [M] -4): 50.5381 and 45.8587 and 48.6664 and 46.0459 | FP assay result (normalised FP signal) (LC3C; log10 concentration [M] -4.5): 71.5021 and 72.0636 and 76.3687 and 74.6841 | FP assay result (normalised FP signal) (LC3C; log10 concentration [M] -5): 93.0276 and 94.7122 and 94.8994 and 95.6481 | FP assay result (normalised FP signal) (LC3C; log10 concentration [M] -5.5): 93.7763 and 94.3379 and 97.5199 and 95.8353 | FP assay result (normalised FP signal) (LC3C; log10 concentration [M] -6): 96.0225 and 101.076 and 101.638 and 98.4558 | FP assay result (normalised FP signal) (LC3C; log10 concentration [M] -6.5): 90.0328 and 92.0917 and 90.5943 and 93.2148 | FP assay result (normalised FP signal) (LC3C; log10 concentration [M] -7): 99.2045 and 96.9584 and 97.5199 and 97.8942 | FP assay result (normalised FP signal) (LC3C; log10 concentration [M] -7.5): 99.9532 and 98.8301 and 99.3917 and 101.825 | FP assay result (normalised FP signal) (LC3C; log10 concentration [M] -8): 96.2096 and 99.0173 and 101.263 and 99.2045 | FP assay result (normalised FP signal) (LC3C; log10 concentration [M] -8.5): 94.3379 and 96.2096 and 95.0866 and 96.0225 | FP assay result (normalised FP signal) (GABARAPL2; log10 concentration [M] -3.5): 15.4589 and 21.9002 and 32.8502 and 25.1208 | FP assay result (normalised FP signal) (GABARAPL2; log10 concentration [M] -4): 44.4444 and 43.8003 and 53.7842 and 57.0048 | FP assay result (normalised FP signal) (GABARAPL2; log10 concentration [M] -4.5): 73.752 and 73.1079 and 75.0403 and 77.2947 | FP assay result (normalised FP signal) (GABARAPL2; log10 concentration [M] -5): 94.686 and 90.8213 and 95.0081 and 104.992 | FP assay result (normalised FP signal) (GABARAPL2; log10 concentration [M] -5.5): 97.2625 and 94.0419 and 105.958 and 102.093 | FP assay result (normalised FP signal) (GABARAPL2; log10 concentration [M] -6): 96.2963 and 93.0757 and 104.026 and 99.5169 | FP assay result (normalised FP signal) (GABARAPL2; log10 concentration [M] -6.5): 86.9565 and 89.8551 and 99.1948 and 93.0757 | FP assay result (normalised FP signal) (GABARAPL2; log10 concentration [M] -7): 90.4992 and 100.483 and 104.992 and 96.9404 | FP assay result (normalised FP signal) (GABARAPL2; log10 concentration [M] -7.5): 99.839 and 95.9742 and 100.161 and 104.026 | FP assay result (normalised FP signal) (GABARAPL2; log10 concentration [M] -8): 94.686 and 94.3639 and 101.127 and 98.5507 | FP assay result (normalised FP signal) (GABARAPL2; log10 concentration [M] -8.5): 91.4654 and 99.5169 and 96.2963 and 101.127
